Source: patent publication US20250074895A1, “CDK2 INHIBITORS AND METHODS OF MAKING AND USING SAME” (BLUEPRINT MEDICINES CORPORATION, priority 2021, published 2025)

Legend:
CDK1/Cyclin B1, GST-tag = CDK1/Cyclin B1, GST-tag (Homo sapiens (Human), UniProt P06493); assay: Biochemical CDK inhibition assay (Caliper mobility shift), CDK1/Cyclin B1; conditions: 1.0 mM ATP or ATP Km, 1.5 nM enzyme, apparent IC50
Description: (§1) Inhibitory effects of the compounds of the disclosure were measured in biochemical assays that measure the enzymatic phosphorylation activity of CDK enzyme in complex of Cyclin proteins phosphorylates 7.5 micromolar fluorescently labelled peptide substrate, 5-FAM-QSPKKG-CONH2, (FL-Peptide 18, Perkin Elmer, 760362) in the presence of adenosine-5′-triphosphate (ATP) and varying concentrations of the test compound in 100 mM 2-[4-(2-hydroxyethyl)piperazin-1-yl]ethanesulfonic acid (HEPES), pH 7.5, 10 mM MgCl2, 0.015% Brij-35, 1 mM dithiothreitol (DTT), 1.0% dimethylsulfoxide (DMSO). Assays were performed at 1.0 mM ATP or at ATP Km of the CDK enzymes in complex with Cyclin proteins. Reactions proceeded until between 10% to 20% total peptides were phosphorylated at room temperature (25° C.) and were terminated with 35 mM 2,2′,2″,2′″-(ethane-1,2-diyldinitrilo)tetraacetic acid (EDTA). Product was detected using the Caliper mobility shift detection method where the phosphorylated peptide (product) and substrate were electrophoretically separated and measured. Percent activity was plotted against log concentration of compound and points to generate an apparent IC50. The following CDK enzymes in complex with different cyclin proteins were used in these assays: • CDK1/Cyclin B1, GST-tag (BPS, 40454), 1.5 nM used in the assay • CDK2/Cyclin E (Eurofins, 14-475), 1.25 nM used in the assays
(§2) For inhibitory activity against CDK2/Cyclin […], the following designations are used: ≤10 nM=A; >10-20 nM=B; >20-30 nM=C; >30-100 nM=D and >100=E. For inhibition CDK1/Cyclin B1, GST-tag: ≥500 nM=A; 100-<500 nM=B; <100 nM=C.

CDK2/Cyclin E = CDK2/Cyclin E (Homo sapiens (Human), UniProt P24941); assay: Biochemical CDK inhibition assay (Caliper mobility shift), CDK2/Cyclin E; conditions: 1.0 mM ATP or ATP Km, 1.25 nM enzyme, apparent IC50, read-out: CDK2/cyclin E1 IC50
Description: as §1, §2

CDK1/Cyclin B1, GST-tag, sequence (P06493 whole entry): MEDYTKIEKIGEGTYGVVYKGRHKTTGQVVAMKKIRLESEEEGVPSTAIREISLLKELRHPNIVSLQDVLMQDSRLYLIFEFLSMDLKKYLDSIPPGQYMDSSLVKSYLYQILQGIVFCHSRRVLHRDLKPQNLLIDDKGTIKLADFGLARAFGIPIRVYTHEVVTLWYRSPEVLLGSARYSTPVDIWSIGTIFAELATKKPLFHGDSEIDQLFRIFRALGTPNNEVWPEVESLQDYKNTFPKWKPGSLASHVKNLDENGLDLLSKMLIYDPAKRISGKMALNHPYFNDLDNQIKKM
CDK1/Cyclin B1, GST-tag, sequence (P14635 whole entry partner): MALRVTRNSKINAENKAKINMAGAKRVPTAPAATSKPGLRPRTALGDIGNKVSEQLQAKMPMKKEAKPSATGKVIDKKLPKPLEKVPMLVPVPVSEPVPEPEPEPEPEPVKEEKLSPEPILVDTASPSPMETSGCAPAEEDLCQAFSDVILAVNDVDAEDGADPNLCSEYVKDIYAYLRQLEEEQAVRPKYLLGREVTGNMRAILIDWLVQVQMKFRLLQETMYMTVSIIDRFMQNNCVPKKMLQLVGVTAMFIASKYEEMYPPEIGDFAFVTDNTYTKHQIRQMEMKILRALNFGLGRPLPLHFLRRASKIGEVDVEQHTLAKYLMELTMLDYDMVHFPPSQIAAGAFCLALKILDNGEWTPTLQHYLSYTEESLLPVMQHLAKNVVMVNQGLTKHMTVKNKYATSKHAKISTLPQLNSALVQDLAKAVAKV

IC50 (CDK1/Cyclin B1, GST-tag) [nM]	IC50 (CDK2/Cyclin E) [nM]	Structure (SMILES)
< 100	≤ 10	CNC(=O)O[C@@H]1CC[C@H](c2cc(Nc3cncc(OCC4CC4)n3)n[nH]2)C1 [Example 56, (1R,3S)-3-(3-((6-(cyclopropylmethoxy)pyrazin-2-yl)amino)-1H-pyrazol-5-yl)cyclopentyl methylcarbamate]
100 to 500	≤ 10	CC(C)NC(=O)O[C@@H]1CC[C@H](c2cc(Nc3cnc(C#N)cn3)n[nH]2)C1 [Example 53, (1R,3S)-3-(3-((5-cyanopyrazin-2-yl)amino)-1H-pyrazol-5-yl)cyclopentyl isopropylcarbamate]
< 100	≤ 10	CC(C)(O)c1cnc(Nc2cc([C@H]3CC[C@@H](OC(=O)N4CCC4(C)C)C3)[nH]n2)cn1 [Example 50, (1R,3S)-3-(3-((5-(2-hydroxypropan-2-yl)pyrazin-2-yl)amino)-1H-pyrazol-5-yl)cyclopentyl 2,2-dimethylazetidine-1-carboxylate]
